# EP4678638A1, “NEW E3 UBIQUITIN LIGASE LIGAND, PROTEIN DEGRADATION AGENT AND USE THEREOF” (priority 2023, dated 2024)
# Experiments:
# RSK1 = target: T1, RSK1 (Homo sapiens, UniProt Q15418); test: Western blot degradation of RSK1 (hPBMC); assay type: cell-based; conditions: Table D8
# T1 construct: evaluate the effects of the compounds of the present disclosure on the expression of target proteins in cells; endogenous in cells; host or cells: hPBMC
# Protocol: (§1) Conventional Western blot assay was performed to evaluate the effects of the compounds of the present disclosure on the expression of target proteins in cells.
# (§2) (1) Cell Seeding and Protein Harvesting: The selected cells were processed according to the cell seeding procedure and protein harvesting procedure in Table III-2. Table III-2 Cell Seeding and Protein Harvesting Procedures
# (§3) (2) To the collected supernatant, 5X SDS sample loading buffer was added, followed by denaturation at 95°C for 5 minutes. The denatured samples were then separated by SDS-PAGE electrophoresis on a polyacrylamide gel. Proteins were transferred to a nitrocellulose membrane (0.45 µm NC membrane), blocked with blocking buffer at room temperature for 1 hour, and subjected to antibody incubation and development procedures according to the antibody manufacturer's instructions (Cell Signaling Technology).
# (§4) Half-Maximal Degradation Concentration value (the drug concentration required for degrading proteins by 50%, abbreviated as DC50) reads method: comparing the grayscale values of Western blot bands from drug-treated samples with those from blank DMSO-treated controls, and identifying the drug concentration range at which the grayscale value is half that of the DMSO-treated control bands.
# (§5) DC50 values can be calculated using ImageJ software to measure grayscale values of Western blot bands from drug-treated samples. The concentration-response curve is fitted to estimate the drug concentration corresponding to half the grayscale value.
# (§6) Target protein remaining (%) refers to the percentage of target protein remaining in hPBMC cells after treatment with protein degrader compounds.
# (§7) Calculation method for target protein remaining (%): Use ImageJ software to measure grayscale values of Western blot bands from drug (protein degrader)-treated samples. The grayscale value of drug-treated bands is divided by that of internal control protein bands, and the resulting quotient is normalized to obtain the relative percentage of remaining target protein after protein degrader treatment.
# (§8) Target protein degradation rate (%) = 100% - target protein remaining (%).
# RSK2 = target: T2, RSK2 (Homo sapiens, UniProt P51812); test: Western blot degradation of RSK2 (hPBMC); assay type: cell-based; conditions: Table D8
# T2 construct: evaluate the effects of the compounds of the present disclosure on the expression of target proteins in cells; endogenous in cells; host or cells: hPBMC
# Protocol: as §1, §2, §3, §4, §5, §6, §7, §8
# CDK6 = target: T3, CDK6 (Homo sapiens, UniProt Q00534); test: Western blot degradation of CDK6 (MDA-MB-231 Cell); assay type: cell-based; conditions: Table D3
# T3 construct: evaluate the effects of the compounds of the present disclosure on the expression of target proteins in cells; endogenous in cells; host or cells: MDA-MB-231
# Method in brief: (§9)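 Quantification by ImageJ densitometry of Western blot bands: DC50 is the fitted concentration halving band intensity relative to DMSO. Percent remaining uses internal-control normalization, and degradation rate is its complement.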
# CDK4 = target: T4, CDK4 (Homo sapiens, UniProt P11802); test: Western blot degradation of CDK4 (MDA-MB-231 Cell); assay type: cell-based; conditions: Table D3
# T4 construct: evaluate the effects of the compounds of the present disclosure on the expression of target proteins in cells; endogenous in cells; host or cells: MDA-MB-231
# Method in brief: as §9
# CCRF-CEM = test: CCK-8 proliferation, CCRF-CEM; assay type: cell-based, Human; conditions: Homo sapiens, CCRF-CEM; CCK-8; 96 hours; read-out: Inhibitory activity (IC50) on tumor cell proliferation, CCRF-CEM
# Protocol: The tumor cells used herein were cultured in a cell culture medium listed in table A1 at 37°C in an incubator with 5% CO2. Prior to experimentation, all cell lines used were correctly identified by STR profiling, and tested negative for mycoplasma contamination using a mycoplasma detection kit through routine screenings. Table A1. Tumor cells and cell culture medium used in the present disclosure
# IC50 values of the compounds of the present disclosure (including the compounds in Table 1, and compounds of examples) were measured using the Meilun Cell Counting Kit-8 kit from Dalian Meilun Biotech Co., Ltd. Assay details are as follows: tumor cells were seeded in a 96-well plate at a density listed in Table A2. After 24h, 100 µL of the inoculated cells were treated with 0.5µL of the compounds of the present disclosure (including the compounds in Tables 1 and 2, and compounds of examples) at 10 different successively decreasing concentrations (starting at the highest concentration of 10µM; 5-fold serial dilutions). After the cells were treated with the compounds of the present disclosure for a period of time, the cell viability detection reagent was added to the culture medium for cell viability assessment according to the instructions provided with the CCK-8 kit. […] The growth inhibition of the compounds of the present disclosure on cells was plotted by Prism Graphpad software, and the IC50 values of the compounds of the present disclosure were calculated therefrom. […] Seeding protocol and treatment time for tumor cells
# T2 sequence (P51812 whole entry): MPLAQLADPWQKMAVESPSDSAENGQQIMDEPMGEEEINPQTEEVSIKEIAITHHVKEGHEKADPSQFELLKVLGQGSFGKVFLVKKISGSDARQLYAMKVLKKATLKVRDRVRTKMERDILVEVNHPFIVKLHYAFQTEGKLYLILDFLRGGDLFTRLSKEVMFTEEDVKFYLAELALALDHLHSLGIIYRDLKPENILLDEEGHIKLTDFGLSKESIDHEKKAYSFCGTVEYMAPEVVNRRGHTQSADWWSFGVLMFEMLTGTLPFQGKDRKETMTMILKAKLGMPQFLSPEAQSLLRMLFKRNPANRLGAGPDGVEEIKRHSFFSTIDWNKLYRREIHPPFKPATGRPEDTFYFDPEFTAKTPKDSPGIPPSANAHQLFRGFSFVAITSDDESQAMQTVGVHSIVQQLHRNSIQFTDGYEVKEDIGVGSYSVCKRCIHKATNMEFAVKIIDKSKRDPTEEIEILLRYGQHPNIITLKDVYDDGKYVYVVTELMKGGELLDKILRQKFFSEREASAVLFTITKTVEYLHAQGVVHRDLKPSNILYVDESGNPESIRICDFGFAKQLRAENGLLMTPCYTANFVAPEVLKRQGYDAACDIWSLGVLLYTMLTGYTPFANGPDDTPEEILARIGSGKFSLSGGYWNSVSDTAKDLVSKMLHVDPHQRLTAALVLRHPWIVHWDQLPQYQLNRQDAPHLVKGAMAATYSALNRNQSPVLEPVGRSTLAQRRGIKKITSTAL
# T1 sequence (Q15418 whole entry): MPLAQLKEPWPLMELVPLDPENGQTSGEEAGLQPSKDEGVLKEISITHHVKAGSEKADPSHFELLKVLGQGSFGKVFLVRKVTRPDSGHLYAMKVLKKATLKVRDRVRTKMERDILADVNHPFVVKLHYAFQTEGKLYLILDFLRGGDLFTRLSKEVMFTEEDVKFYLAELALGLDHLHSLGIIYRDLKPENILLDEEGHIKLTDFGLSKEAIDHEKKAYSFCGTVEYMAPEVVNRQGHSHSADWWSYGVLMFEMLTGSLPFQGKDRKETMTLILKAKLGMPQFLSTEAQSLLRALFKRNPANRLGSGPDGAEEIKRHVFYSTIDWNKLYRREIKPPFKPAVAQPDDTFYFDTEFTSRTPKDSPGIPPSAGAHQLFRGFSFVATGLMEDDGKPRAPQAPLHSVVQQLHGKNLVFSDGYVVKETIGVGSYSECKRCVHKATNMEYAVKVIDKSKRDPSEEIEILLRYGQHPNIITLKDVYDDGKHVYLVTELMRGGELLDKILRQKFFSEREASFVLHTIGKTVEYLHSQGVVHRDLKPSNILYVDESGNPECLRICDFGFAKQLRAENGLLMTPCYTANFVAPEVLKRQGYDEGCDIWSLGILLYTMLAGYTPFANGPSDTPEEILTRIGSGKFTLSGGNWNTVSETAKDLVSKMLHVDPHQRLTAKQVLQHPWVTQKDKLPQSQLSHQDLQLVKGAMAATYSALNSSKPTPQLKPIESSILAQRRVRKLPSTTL
# T3 sequence (Q00534 whole entry): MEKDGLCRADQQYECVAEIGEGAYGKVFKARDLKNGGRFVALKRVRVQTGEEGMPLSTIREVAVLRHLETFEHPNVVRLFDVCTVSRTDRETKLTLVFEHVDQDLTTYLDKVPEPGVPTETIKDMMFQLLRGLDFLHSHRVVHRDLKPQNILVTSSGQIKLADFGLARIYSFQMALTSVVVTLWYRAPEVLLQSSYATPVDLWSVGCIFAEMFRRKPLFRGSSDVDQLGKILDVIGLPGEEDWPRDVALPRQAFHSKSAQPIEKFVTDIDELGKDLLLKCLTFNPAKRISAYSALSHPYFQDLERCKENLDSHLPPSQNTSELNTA
# T4 sequence (P11802 whole entry): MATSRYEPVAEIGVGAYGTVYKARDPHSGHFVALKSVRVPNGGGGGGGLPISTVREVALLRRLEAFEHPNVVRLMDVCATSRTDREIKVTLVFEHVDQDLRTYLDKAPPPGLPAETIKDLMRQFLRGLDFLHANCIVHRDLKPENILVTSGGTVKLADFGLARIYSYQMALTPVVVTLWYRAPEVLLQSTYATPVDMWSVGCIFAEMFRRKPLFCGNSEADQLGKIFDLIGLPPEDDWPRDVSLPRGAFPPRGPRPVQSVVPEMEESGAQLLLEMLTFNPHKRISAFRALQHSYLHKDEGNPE
IC50 (CCRF-CEM) [nM],Compound,Degradation of substrate protein RSK1 (substrate protein remaining %) (RSK1),Degradation of substrate protein RSK2 (substrate protein remaining %) (RSK2),Degradation of substrate protein CDK6 (substrate protein remaining %) (CDK6),Degradation of substrate protein CDK4 (substrate protein remaining %) (CDK4)
,"C[C@@H]1CNC(=O)c2cc3ccc(C(=O)Nc4cnn(Cc5ccc(N6CCC(N(C)Cc7ccc(N8CCC(=O)NC8=O)cc7)CC6)cc5)c4)nc3n21 [GT-07938, (R)-N-(1-(4-(4-((4-(2,4-dioxotetrahydropyrimidin-1(2H)-yl)benzyl)(methyl)amino)piperidin-1-yl)benzyl)-1H-pyrazol-4-yl)-9-methyl-6-oxo-6,7,8,9-tetrahydropyrido[3',2':4,5]py rrolo[1,2-a]pyrazine-2-carboxamide]",A (A is defined as 0% ≤ substrate protein remaining % ≤ 80%),B (B is defined as substrate protein remaining % > 80%),,
,"C[C@@H]1CNC(=O)c2cc3ccc(C(=O)Nc4cnn(Cc5ccc(N6CCC(N(C)Cc7ccc(N8CCC(=O)NC8=O)cn7)CC6)cc5)c4)nc3n21 [GT-07940, (R)-N-(1-(4-(4-(((5-(2,4-dioxotetrahydropyrimidin-1(2H)-yl)pyridin-2-yl)methyl)(methyl)amino)piperidin-1-yl)benzyl)-1H-pyrazol-4-yl)-9-methyl-6-oxo-6,7,8,9-tetrahydropyrido[3',2':4,5]py rrolo[1,2-a]pyrazine-2-carboxamide]",A (A is defined as 0% ≤ substrate protein remaining % ≤ 80%),A (A is defined as 0% ≤ substrate protein remaining % ≤ 80%),,
,"C[C@@H]1CNC(=O)c2cc3ccc(C(=O)Nc4cnn(Cc5ccc(N6CCC(N(C)Cc7cnc(N8CCC(=O)NC8=O)cn7)CC6)cc5)c4)nc3n21 [GT-07950, (R)-N-(1-(4-(4-(((5-(2,4-dioxotetrahydropyrimidin-1(2H)-yl)pyrazin-2-yl)methyl)(methyl)amino)piperidin-1-yl)benzyl)-1H-pyrazol-4-yl)-9-methyl-6-oxo-6,7,8,9-tetrahydropyrido[3',2':4,5]py rrolo[1,2-a]pyrazine-2-carboxamide]",A (A is defined as 0% ≤ substrate protein remaining % ≤ 80%),A (A is defined as 0% ≤ substrate protein remaining % ≤ 80%),,
,"C[C@@H]1CNC(=O)c2cc3ccc(C(=O)Nc4cnn(Cc5ccc(N6CCC(N7CCN(Cc8cc(N9CCC(=O)NC9=O)ncc8F)CC7)CC6)cc5)c4)nc3n21 [GT-07957, (R)-N-(1-(4-(4-(4-((2-(2,4-dioxotetrahydropyrimidin-1(2H)-yl)-5-fluoropyridin-4-yl)methyl)piperazin-1-yl)piperidin-1-yl)benzyl)-1H-pyrazol-4-yl)-9-methyl-6-oxo-6,7,8,9-tetrahydropyrido[3',2':4,5]pyrrolo[1,2-a]pyrazine-2-carboxamide]",A (A is defined as 0% ≤ substrate protein remaining % ≤ 80%),A (A is defined as 0% ≤ substrate protein remaining % ≤ 80%),,
,"C[C@@H]1CNC(=O)c2cc3ccc(C(=O)Nc4cnn(Cc5ccc(N6CCN(Cc7cnc(N8CCC(=O)NC8=O)cn7)CC6)cc5)c4)nc3n21 [GT-07936, (R)-N-(1-(4-(4-((5-(2,4-dioxotetrahydropyrimidin-1(2H)-yl)pyrazin-2-yl)methyl)piperazin-1-yl)benzyl)-1H-pyrazol-4-yl)-9-methyl-6-oxo-6,7,8,9-tetrahydropyrido[3',2':4,5]py rrolo[1,2-a]pyrazine-2-carboxamide]",A (A is defined as 0% ≤ substrate protein remaining % ≤ 80%),B (B is defined as substrate protein remaining % > 80%),,
,"C[C@@H]1CNC(=O)c2cc3ccc(C(=O)Nc4cnn(Cc5ccc(N6CCC(N(C)Cc7ccnc(N8CCC(=O)NC8=O)c7)CC6)cc5)c4)nc3n21 [GT-07944, (R)-N-(1-(4-(4-(((2-(2,4-dioxotetrahydropyrimidin-1(2H)-yl)pyridin-4-yl)methyl)(methyl)amino)piperidin-1-yl)benzyl)-1H-pyrazol-4-yl)-9-methyl-6-oxo-6,7,8,9-tetrahydropyrido[3',2':4,5]py rrolo[1,2-a]pyrazine-2-carboxamide]",A (A is defined as 0% ≤ substrate protein remaining % ≤ 80%),A (A is defined as 0% ≤ substrate protein remaining % ≤ 80%),,
,"C[C@@H]1CNC(=O)c2cc3ccc(C(=O)Nc4cnn(Cc5ccc(N6CCC(N7CCN(Cc8ccc(N9CCC(=O)NC9=O)cc8)CC7)CC6)cc5)c4)nc3n21 [GT-07952, (R)-N-(1-(4-(4-(4-(4-(2,4-dioxotetrahydropyrimidin-1(2H)-yl)benzyl)piperazin-1-yl)piperidin-1-yl)benzyl)-1H-pyrazol-4-yl)-9-methyl-6-oxo-6,7,8,9-tetrahydropyrido[3',2':4,5]pyrrolo[1,2-a]pyrazine-2-carboxamide]",A (A is defined as 0% ≤ substrate protein remaining % ≤ 80%),A (A is defined as 0% ≤ substrate protein remaining % ≤ 80%),,
,"C[C@@H]1CNC(=O)c2cc3ccc(C(=O)Nc4cnn(Cc5ccc(N6CCN(Cc7ccc(N8CCC(=O)NC8=O)nc7)CC6)cc5)c4)nc3n21 [GT-07930, (R)-N-(1-(4-(4-((6-(2,4-dioxotetrahydropyrimidin-1(2H)-yl)pyridin-3-yl)methyl)piperazin-1-yl)benzyl)-1H-pyrazol-4-yl)-9-methyl-6-oxo-6,7,8,9-tetrahydropyrido[3',2':4,5]py rrolo[1,2-a]pyrazine-2-carboxamide]",A (A is defined as 0% ≤ substrate protein remaining % ≤ 80%),B (B is defined as substrate protein remaining % > 80%),,
,"C[C@@H]1CNC(=O)c2cc3ccc(C(=O)Nc4cnn(Cc5ccc(N6CCC(N(C)Cc7cncc(C8CCC(=O)NC8=O)c7)CC6)cc5)c4)nc3n21 (stereo partly drawn) [GT-07948, (9R)-N-(1-(4-(4-(((5-(2,6-dioxopiperidin-3-yl)pyridin-3-yl)methyl)(methyl)amino)piperidin-1-yl)benzyl)-1H-pyrazol-4-yl)-9-methyl-6-oxo-6,7,8,9-tetrahydropyrido[3',2':4,5]py rrolo[1,2-a]pyrazine-2-carboxamide]",A (A is defined as 0% ≤ substrate protein remaining % ≤ 80%),A (A is defined as 0% ≤ substrate protein remaining % ≤ 80%),,
,"C[C@@H]1CNC(=O)c2cc3ccc(C(=O)Nc4cnn(Cc5ccc(N6CCN(Cc7cncc(N8CCC(=O)NC8=O)c7)CC6)cc5)c4)nc3n21 [GT-07925, (R)-N-(1-(4-(4-((5-(2,4-dioxotetrahydropyrimidin-1(2H)-yl)pyridin-3-yl)methyl)piperazin-1-yl)benzyl)-1H-pyrazol-4-yl)-9-methyl-6-oxo-6,7,8,9-tetrahydropyrido[3',2':4,5]py rrolo[1,2-a]pyrazine-2-carboxamide]",A (A is defined as 0% ≤ substrate protein remaining % ≤ 80%),B (B is defined as substrate protein remaining % > 80%),,
500 to 1000,"CN(C)C(=O)c1cc2cnc(Nc3ccc(N4CCN(Cc5ccnc(N6CCC(=O)NC6=O)c5)CC4)cn3)nc2n1C1CCCC1 [GT-07475, 7-cyclopentyl-2-((5-(4-((2-(2,4-dioxotetrahydropyrimidin-1(2H)-yl)pyridin-4-yl)methyl)piperazin-1-yl)pyridin-2-yl)amino)-N,N-dimethyl-7H-pyrrolo[2,3-d]pyrimidine-6-carboxamide]",,,A (A is defined as 0% ≤ substrate protein remaining % ≤ 80%),A (A is defined as 0% ≤ substrate protein remaining % ≤ 80%)
